Results on five compounds are retold here after patent publication US11124605B2, “Antimicrobial alpha-helical cationic polypeptides” (priority 2015, dated 2021).

The subject of series [1] is ATCC11778 (Bacillus toyonensis). Description: Minimal inhibitory concentration (MIC). The format is cell-based. Conditions: without polypeptide. Here is the method:
(§1) Gram-negative bacteria, DH5a (E. coli), MG1655 (E. coli), C101 (Pseudomonas aeruginosa), and Gram-positive bacteria, ATCC12608 (S. aureus), ATCC11778 (Bacillus toyonensis), and methicillin-resistant S. aureus (MRSA) strains, NRS382, NRS383, NRS384 were grown in LB medium at 37° C. Clinical isolated Helicobacter pylori strains, B107, J291, J99, J99-AF, J99-A9 and J99-A11 were incubated in BB with 10% FBS supplemented with vancomycin (5 μg/mL) at 37° C. Among them, J99-AF, J99-A9 and J99-A11 are drug resistant bacteria. For determination of the MIC, polypeptides were dissolved in media using serial dilutions from a stock solution. Into each well of a 96-well plate was added 200 μL of each concentration and 2 μL of bacteria (1×10^8 CFU (colony forming units)) in medium. The plate was incubated at 37° C. The optical density readings of microorganism solutions were measured after 24 h incubation. The MIC was considered as the lowest concentration of peptide where no visual growth of bacteria was detected.

A further series concerns DH5α (Escherichia coli). The series is described as follows: Minimal inhibitory concentration (MIC). The format is cell-based. The following applies: without polypeptide.
In series [2] the test system is ATCC12608 (Staphylococcus aureus). The series is described as follows: Minimal inhibitory concentration (MIC). Type of series: cell-based. Conditions: without polypeptide. Here is the method:
as §1
The stability of polypeptide was tested in the MIC assay in different environments, including salts, serum, plasma, tear fluid, and mucin. […]

Series [3] concerns trypsin, pronase, elastase from Pseudomonas aeruginosa, elastase from human leukocytes. The series is described as follows: Stability of polypeptides against protease (HPLC). Type of series: in vitro ADME. Conditions: 8 h incubation with trypsin, P. aeruginosa elastase or human leukocyte elastase.
Procedure: As a positive control, LL-37 (0.1 mg/mL) was also incubated with trypsin (0.1 mg/mL) or pronase (12 mg/L) or Pseudomonas Aeruginosa elastase (0.6 mg/L) in Tris buffer (pH 7.4) at 37° C. LL-37 (0.1 mg/mL) was incubated with elastase from human leukocytes (2.5 mg/L) in sodium acetate buffer at 37° C. After 8 h of incubation, the samples were taken out for HPLC analyses.
Series [4] concerns C101 (Pseudomonas aeruginosa). Description: Minimal inhibitory concentration (MIC). The following applies: without polypeptide. The format is cell-based. Here is the method:
as §1

The test system of another series is MG1655 (E. coli). The series is described as follows: Minimal inhibitory concentration (MIC). The format is cell-based, Escherichia coli. Conditions: without polypeptide. Here is the method:
as §1

Procedure for DH5α (Escherichia coli): Gram-negative bacteria, DH5a (E. coli), MG1655 (E. coli), C101 (Pseudomonas aeruginosa), and Gram-positive bacteria, ATCC12608 (S. aureus), ATCC11778 (Bacillus toyonensis), and methicillin-resistant S. aureus (MRSA) strains, NRS382, NRS383, NRS384 were grown in LB medium at 37° C. […] For determination of the MIC, polypeptides were dissolved in media using serial dilutions from a stock solution. Into each well of a 96-well plate was added 200 μL of each concentration and 2 μL of bacteria (1×10^8 CFU (colony forming units)) in medium. The plate was incubated at 37° C. The optical density readings of microorganism solutions were measured after 24 h incubation. The MIC was considered as the lowest concentration of peptide where no visual growth of bacteria was detected.

As to `[H]/N=C(/N)N[C@H]1[C@H](O)[C@@H](O)[C@H](O[C@@H]2O[C@@H](C)[C@](O)(C=O)[C@H]2O[C@@H]2O[C@@H](CO)[C@H](O)[C@@H](O)[C@@H]2NC)[C@@H](N/C(N)=N\[H])[C@@H]1O` [Streptomycin, streptomycin], the MIC of antibiotic (in series [1]; with DH5α (Escherichia coli); in series [2]) was 6.9 µM in each case.

Take LL-37: in series [3], the “proteolytic degradation by HPLC” value is recorded as “readily degraded”.

Regarding gentamicin, the figures for the MIC of antibiotic (in series [4]; with MG1655 (E. coli)) were 8.4 µM and 2.1 µM, respectively.

In the case of `C[C@H]1c2cccc(O)c2C(=O)C2=C(O)[C@]3(O)C(=O)C(C(N)=O)=C(O)[C@@H](N(C)C)[C@@H]3[C@@H](O)[C@@H]21` [Doxycycline, doxycycline], the MIC of antibiotic came out at 288.0 µM in series [4] and 4.5 µM in the series on MG1655 (E. coli).

As to `CO[C@H]1/C=C/O[C@@]2(C)Oc3c(C)c(O)c4c(O)c(c(/C=N/N5CCN(C)CC5)c(O)c4c3C2=O)NC(=O)/C(C)=C\C=C\[C@H](C)[C@H](O)[C@@H](C)[C@@H](O)[C@@H](C)[C@H](OC(C)=O)[C@@H]1C` [Rifampicin, rifampicin], the MIC of antibiotic in series [4] is 77.8 µM; in the series on MG1655 (E. coli) it was 9.7 µM.
